Experimental data reported in PMC10731318, “Heterologously expressed SacP23, a novel bacteriocin from Paenibacillus polymyxa #23, is active against methicillin resistant Staphylococcus aureus” (Royal Society Open Science, 2023).

Key:
[1] = system: many phytopathogens and Gram-positive bacteria; details: cited from earlier work
[2] = system: Gram-negative and Gram-positive pathogens including antibiotic-resistant strains of E. coli, P. aeruginosa, Acinetobacter baumannii, K. pneumoniae, S. aureus …; details: cited from earlier work
[3] = system: many Gram-negative bacteria including colistin-resistant Klebsiella pneumonia, E. coli, and Campylobacter species; details: cited from earlier work
S. aureus ATCC 25923 = type: cell-based, Staphylococcus aureus; details: purified SacP23, medium MHA, clear zone, 30°C 12–18 h
S. aureus MRSA 344/2-24 = type: cell-based, Staphylococcus aureus
B. subtilis BS34A = type: cell-based, Bacillus subtilis
B. cereus ATCC 10876 = type: cell-based, Bacillus cereus; details: purified SacP23, medium MHA
[4] = system: L. monocytogenes192/1-2 ACM 3173; type: cell-based, Listeria monocytogenes; details: purified SacP23; L. monocytogenes 192/1-2 ACM 3173; medium MHA
C. perfringens EHE-NE18 = type: cell-based, Clostridium perfringens; details: purified SacP23, medium MHA
L. plantarum A6 = type: cell-based, Lactobacillus plantarum; details: purified SacP23, medium deMan, Rogosa and Sharpe (MRS)
E. faecalis (VRE) 345/19 = type: cell-based, Enterococcus faecalis; details: purified SacP23, medium MRS
[5] = system: S. Enteritidis ATCC 13076; type: cell-based, Salmonella Enteritidis; details: purified SacP23, medium MHA
E. coli ATCC 25922 = type: cell-based; details: purified SacP23, medium MHA
C. jejuni ATCC 81116 = type: cell-based, Campylobacter jejuni; details: purified SacP23, medium MHA + 5% sheep blood
pronase E = pronase E 1 mg ml^−1, 1 h; spot-on-lawn versus untreated sample
proteinase K = proteinase K (Parengyodontium album, UniProt P06873); details: proteinase K 1 mg ml^−1, 1 h; spot-on-lawn versus untreated sample
trypsin = trypsin 1 mg ml^−1, 1 h; spot-on-lawn versus untreated sample
lipase = lipase 1 mg ml^−1, 1 h; spot-on-lawn versus untreated sample
catalase = catalase 1 mg ml^−1, 1 h; spot-on-lawn versus untreated sample
[6] = system: Gram-positive and Gram-negative bacteria; details: cited from earlier work
Excerpt: Further studies need to be undertaken to fully assess the potency of the SacP23 by performing minimum inhibitory concentration tests for a range of sensitive bacteria. […] This indicates the diversity in antimicrobial spectra of sactipeptide-type ...

[7] = isolated from a Cyanobacteria sp.; cited from earlier work
[8] = system: Pseudomonas aeruginosa and K. pneumonia; details: cited from earlier work

Chain of proteinase K (P06873 106-384): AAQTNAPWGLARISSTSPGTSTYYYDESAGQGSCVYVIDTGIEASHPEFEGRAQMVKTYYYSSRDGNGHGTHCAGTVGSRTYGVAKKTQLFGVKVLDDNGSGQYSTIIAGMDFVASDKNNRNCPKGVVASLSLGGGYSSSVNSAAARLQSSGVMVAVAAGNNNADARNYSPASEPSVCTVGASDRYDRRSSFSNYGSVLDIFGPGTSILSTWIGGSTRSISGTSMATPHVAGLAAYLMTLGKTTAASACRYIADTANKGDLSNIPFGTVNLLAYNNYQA

For fusaricidin B, the inhibitory activity [1] is listed as “inhibitory activity”.

For paenibacterin, the antimicrobial activity [2] is given as “antimicrobial activity”.

In the case of Tridecaptin, the “activity against Gram-negative bacteria” value [3] is given as “strong activity”.

For “MRKLVKRSTNVGDTIEAFGCGCSCYCPCSCYCAGSLTRSSNTSRESDGSYRRDNGTGIGN [SacP23]”, the antimicrobial activity (S. aureus ATCC 25923) was “+”, the “antimicrobial activity against an MRSA isolate” value (S. aureus MRSA 344/2-24; heterologously expressed recombinant SacP23, result in words) was “strong activity” and the antimicrobial activity (S. aureus MRSA 344/2-24; purified SacP23, S. aureus MRSA 344/2-24, medium MHA, clear zone, 30°C 12–18 h) was “+”. The antimicrobial activity (B. subtilis BS34A; purified SacP23, B. subtilis BS34A, medium MHA) was “+”, the “sensitivity of the base B. subtilis expression strain” value (B. subtilis BS34A; recombinant SacP23, result in words) was “sensitive” and the antimicrobial activity (B. cereus ATCC 10876) was “+”. For the same substance, the antimicrobial activity [4] was “−”, the antimicrobial activity (C. perfringens EHE-NE18) was “−” and the antimicrobial activity (L. plantarum A6) was “−”. For the same substance, the antimicrobial activity (E. faecalis (VRE) 345/19) was “+”, the antimicrobial activity [5] was “−” and the antimicrobial activity (E. coli ATCC 25922) was “−”. The antimicrobial activity (C. jejuni ATCC 81116) was “−”, the “enzymatic stability: remaining antimicrobial activity after pronase E” value (pronase E) was “sensitive” and the “enzymatic stability: remaining antimicrobial activity after proteinase K” value (proteinase K) was “sensitive”. For the same substance, the “enzymatic stability: remaining antimicrobial activity after trypsin” value (trypsin) was “sensitive”, the “enzymatic stability: remaining antimicrobial activity after lipase” value (lipase) was “resistant” and the “enzymatic stability: remaining antimicrobial activity after catalase” value (catalase) was “resistant”.

In the case of “subtilosin A (cyclo(NKGCATCSIGAACLVDGPIPDFEIAGATGLFGLWG); ends not checked; also: sactipeptide thioether linkages between Cys and alpha-carbons, positions not given here; UniProt O07623 9-43, looked up)”, the antimicrobial spectrum [6] is given as “antimicrobial activity extending to both Gram-positive and Gram-negative bacteria”.

For landornamide A, the antiviral activity [7] is listed as “antiviral activity”.

For Polymyxin, the growth suppression [8] is given as “suppress the growth”.
